Data on 13 compounds can be found in DBAASP.

Some test systems named below: Bacillus cereus; Staphylococcus aureus; Escherichia coli; Bacillus subtilis 168; Salmonella typhimurium.
Assay in all cases: ≥ marks a high value that may be exact or a test limit, other limits are often not marked, values filed in µg/mL are converted to µM
For assay [1], the system named is Klebsiella pneumoniae ATCC 700603.
The test system of assay [2] is Bacillus subtilis ATCC 23857.
The test system of assay [3] is Pseudomonas aeruginosa ATCC 27853.
For assay [4], the system named is Staphylococcus epidermidis ATCC 12228.
Assay [5] relates to Acinetobacter baumannii ATCC 19606.
Assay [6] relates to Escherichia coli ATCC 25922.
In assay [7] the test system is Enterococcus faecalis ATCC 29212.
Assay [8] has as its system Staphylococcus aureus ATCC 25923.

SMILES strings stand for the structures. Converted amounts (≈) assume the structure as drawn.

With `CC(C)C[C@H](NC(=O)[C@@H](N)Cc1ccccc1)C(=O)NCC(=O)N[C@H](C(=O)N[C@H](C(=O)N[C@@H](Cc1ccccc1)C(=O)N[C@@H](CCCCN)C(=O)N[C@@H](CCCCN)C(=O)N[C@@H](C)C(=O)N[C@@H](CO)C(=O)N[C@@H](CCCCN)C(=O)N[C@H](C(=O)N[C@@H](Cc1ccccc1)C(=O)N[C@@H](CCCCN)C(=O)N[C@@H](C)C(=O)N[C@H](C(=O)N[C@@H](Cc1ccccc1)C(=O)NCC(=O)N[C@@H](CCCCN)C(=O)N[C@H](C(=O)O)C(C)C)C(C)C)C(C)C)C(C)C)C(C)C` [FLGVVFKKASKVFKAVFGKV], the minimum inhibitory concentration (MIC) in the assay with Bacillus cereus came out at 14.5 µM (≈ 32 µg/mL); in the assay on Staphylococcus aureus, 116 µM (≈ 256 µg/mL); against Escherichia coli, 14.5 µM (≈ 32 µg/mL).

Consider `CC[C@H](C)[C@H](NC(=O)CNC(=O)[C@@H](NC(=O)[C@H](CCCCN)NC(=O)[C@H](C)NC(=O)[C@@H](NC(=O)[C@H](C)NC(=O)[C@H](CO)NC(=O)[C@H](CO)NC(=O)[C@H](Cc1ccccc1)NC(=O)[C@H](CC(C)C)NC(=O)[C@@H](NC(=O)[C@@H]1CCCN1C(=O)[C@@H](N)CC(C)C)C(C)C)[C@@H](C)CC)C(C)C)C(=O)N[C@@H](CCCCN)C(=O)N[C@@H](CC(C)C)C(=O)NCC(=O)N[C@@H](C)C(=O)N[C@@H](CCCCN)C(=O)N[C@H](C(=O)O)C(C)C` [LPVLFSSAIAKVGIKLGAKV], for which the figures for the minimal inhibitory concentration (MIC) in the assay on Bacillus cereus and against Escherichia coli were ≥ 127 µM and > 127 µM, respectively.

In turn, `CC[C@H](C)[C@H](NC(=O)[C@H](CS)NC(=O)[C@H](CCSC)NC(=O)[C@H](CS)NC(=O)[C@H](CCCN=C(N)N)NC(=O)[C@@H](N)CC(C)C)C(=O)N[C@@H](CCCCN)C(=O)N[C@@H](Cc1c[nH]c2ccccc12)C(=O)N[C@@H](Cc1c[nH]c2ccccc12)C(=O)N[C@@H](CO)C(=O)NCC(=O)N[C@@H](CCCCN)C(=O)N[C@@H](Cc1cnc[nH]1)C(=O)N1CCC[C@H]1C(=O)N[C@@H](CCCCN)C(=O)O` [LRCMCIKWWSGKHPK] showed an MIC in the assay on Bacillus subtilis 168 of 7 µM (≈ 13.1 µg/mL).

Regarding `CC[C@H](C)[C@H](NC(=O)[C@H](CO)NC(=O)[C@H](CS)NC(=O)[C@H](Cc1ccc(O)cc1)NC(=O)[C@@H](NC(=O)[C@H](C)NC(=O)[C@@H]1CCCN1C(=O)[C@H](Cc1ccccc1)NC(=O)[C@@H](NC(=O)[C@H](CCCCN)NC(=O)[C@H](CO)NC(=O)[C@H](C)NC(=O)[C@@H](NC(=O)[C@H](CCCN=C(N)N)NC(=O)CNC(=O)[C@H](CC(C)C)NC(=O)[C@H](C)NC(=O)[C@@H](N)CO)C(C)C)C(C)C)C(C)C)C(=O)N[C@H](C(=O)N[C@@H](CCCCN)C(=O)O)[C@@H](C)O` [SALGRVASKVFPAVYCSITK], the MIC is ≥ 122 µM against Bacillus cereus and > 122 µM in the assay with Escherichia coli.

As for `CC[C@H](C)[C@H](NC(=O)[C@H](CCCCN)NC(=O)CNC(=O)[C@@H](NC(=O)[C@H](C)NC(=O)[C@H](CO)NC(=O)[C@@H](N)CC(C)C)C(C)C)C(=O)N[C@@H](C)C(=O)N[C@@H](CO)C(=O)N[C@@H](CCCCN)C(=O)N[C@H](C(=O)N[C@H](C(=O)N1CCC[C@H]1C(=O)N[C@@H](CO)C(=O)N[C@H](C(=O)N[C@H](C(=O)NCC(=O)N[C@@H](C)C(=O)N[C@@H](Cc1ccccc1)C(=O)N[C@@H](CCCCN)C(=O)O)[C@@H](C)CC)C(C)C)C(C)C)C(C)C` [LSAVGKIASKVVPSVIGAFK], the minimum inhibitory concentration (MIC) against Bacillus cereus is ≥ 130 µM; in the assay on Escherichia coli, > 130 µM.

`CC[C@H](C)[C@H](NC(=O)[C@H](CCSC)NC(=O)[C@H](CO)NC(=O)[C@H](Cc1ccccc1)NC(=O)[C@@H](NC(=O)[C@H](CO)NC(=O)[C@@H]1CCCN1C(=O)[C@@H](NC(=O)[C@@H](NC(=O)[C@H](CCCCN)NC(=O)[C@H](CO)NC(=O)[C@H](C)NC(=O)[C@H](CC(C)C)NC(=O)[C@H](CCCCN)NC(=O)CNC(=O)[C@@H](NC(=O)[C@@H](NC(=O)[C@@H]1CCCN1)C(C)C)[C@@H](C)CC)C(C)C)C(C)C)C(C)C)C(=O)N[C@@H](CCCCN)C(=O)N[C@@H](CCCN=C(N)N)C(=O)O` [PVIGKLASKVVPSVFSMIKR]: the MIC was ≥ 119 µM against Bacillus cereus and > 119 µM in the assay on Escherichia coli.

Regarding `CC[C@H](C)[C@H](NC(=O)[C@H](CC(C)C)NC(=O)[C@H](CO)NC(=O)[C@H](C)NC(=O)[C@@H](NC(=O)[C@H](C)NC(=O)CNC(=O)[C@H](CCCCN)NC(=O)[C@H](Cc1ccccc1)NC(=O)[C@H](CCCCN)NC(=O)[C@@H](NC(=O)[C@H](C)NC(=O)[C@@H](NC(=O)[C@@H](NC(=O)[C@@H]1CCCN1C(=O)[C@H](CO)NC(=O)[C@H](CO)NC(=O)[C@@H](NC(=O)CN)C(C)C)[C@@H](C)CC)C(C)C)C(C)C)C(C)C)C(=O)N[C@@H](CCCCN)C(=O)O` [GVSSPIVAVKFKGAVASLIK], the figures for the minimal inhibitory concentration (MIC) against Bacillus cereus and against Escherichia coli were ≥ 130 µM and > 130 µM, respectively.

As to `CC(C)C[C@H](NC(=O)[C@H](CCCCN)NC(=O)[C@H](Cc1ccccc1)NC(=O)[C@@H](NC(=O)[C@@H](NC(=O)CNC(=O)[C@H](CC(C)C)NC(=O)[C@@H](N)Cc1ccccc1)C(C)C)C(C)C)C(=O)N[C@@H](C)C(=O)N[C@@H](CO)C(=O)N[C@@H](CCCCN)C(=O)N[C@H](C(=O)N[C@@H](Cc1ccccc1)C(=O)NCC(=O)N[C@@H](C)C(=O)N[C@H](C(=O)N[C@@H](Cc1ccccc1)C(=O)N[C@@H](CCCCN)C(=O)N[C@@H](CCCCN)C(=O)N[C@H](C(=O)O)C(C)C)C(C)C)C(C)C` [FLGVVFKLASKVFGAVFKKV], the MIC in the assay with Bacillus cereus was found to be 3.66 µM (≈ 8 µg/mL); with Staphylococcus aureus, 3.66 µM (≈ 8 µg/mL); against Escherichia coli, 117 µM (≈ 256 µg/mL).

As for `CC(C)C[C@H](NC(=O)CN)C(=O)N[C@@H](Cc1c[nH]c2ccccc12)C(=O)N[C@@H](CCCCN)C(=O)N[C@@H](CCCN=C(N)N)C(=O)N[C@@H](Cc1c[nH]c2ccccc12)C(=O)N[C@@H](CCCCN)C(=O)N[C@@H](CCCCN)C(=O)N[C@@H](Cc1ccccc1)C(=O)N[C@@H](Cc1c[nH]c2ccccc12)C(N)=O` [GLWKRWKKFW], the minimal inhibitory concentration (MIC) in assay [1] turned out to be 8 µM (≈ 11.5 µg/mL); in assay [2] it was 8 µM (≈ 11.5 µg/mL); in assay [3], 4 µM (≈ 5.74 µg/mL); in assay [4], 16 µM (≈ 22.9 µg/mL); in [5], 16 µM (≈ 22.9 µg/mL); in [6] it was 8 µM (≈ 11.5 µg/mL). Further, the figures for the minimum inhibitory concentration (MIC) in assay [7] and in [8] were 32 µM (≈ 45.9 µg/mL) and 8 µM (≈ 11.5 µg/mL), respectively.

Regarding `CC[C@H](C)[C@H](NC(=O)[C@H](CCCN=C(N)N)NC(=O)[C@H](CCCCN)NC(=O)[C@H](Cc1c[nH]c2ccccc12)NC(=O)[C@H](Cc1c[nH]c2ccccc12)NC(=O)CN)C(=O)N[C@@H](CCCCN)C(=O)N[C@H](C(=O)N[C@@H](Cc1c[nH]c2ccccc12)C(=O)N[C@@H](Cc1c[nH]c2ccccc12)C(N)=O)[C@@H](C)O` [GWWKRIKTWW], the minimum inhibitory concentration (MIC) came to 8 µM (≈ 11.6 µg/mL) in assay [1]; 8 µM (≈ 11.6 µg/mL) in [2]; 4 µM (≈ 5.78 µg/mL) in assay [3]; 8 µM (≈ 11.6 µg/mL) in [4]; 8 µM (≈ 11.6 µg/mL) in assay [5]; 8 µM (≈ 11.6 µg/mL) in assay [6]. In addition, the MIC in assay [7] was 16 µM (≈ 23.1 µg/mL); in assay [8] it was 4 µM (≈ 5.78 µg/mL).

With `CC[C@H](C)[C@H](NC(=O)[C@@H](NC(=O)[C@@H]1CCCN1C(=O)[C@@H](NC(=O)[C@@H]1CCCN1C(=O)[C@H](CCCCN)NC(=O)[C@H](CCCCN)NC(=O)[C@H](CO)NC(=O)CN)C(C)C)[C@@H](C)CC)C(=O)N[C@@H](Cc1ccc(O)cc1)C(=O)N[C@@H](C)C(=O)N[C@@H](CC(N)=O)C(=O)N[C@@H](CCCN=C(N)N)C(=O)N[C@@H](CCCN=C(N)N)C(=O)N[C@H](C(=O)NCC(=O)N[C@@H](CCCCN)C(=O)N[C@@H](C)C(=O)N[C@@H](CCC(N)=O)C(=O)N[C@@H](CCCN=C(N)N)C(=O)N[C@@H](CCSC)C(=O)O)[C@@H](C)O` [GSKKPVPIIYANRRTGKAQRM], the MIC with Salmonella typhimurium was determined as 20.8 µM (≈ 49.3 µg/mL). This lies in the double-digit micromolar range.

Consider `CC(C)C[C@H](NC(=O)[C@@H](N)Cc1ccccc1)C(=O)NCC(=O)N[C@H](C(=O)N[C@H](C(=O)N[C@@H](Cc1ccccc1)C(=O)N[C@@H](CCCCN)C(=O)N[C@@H](CCCCN)C(=O)N[C@@H](C)C(=O)N[C@@H](CO)C(=O)N[C@@H](CCCCN)C(=O)N[C@H](C(=O)N[C@@H](Cc1ccccc1)C(=O)N1CCC[C@H]1C(=O)N[C@@H](C)C(=O)N[C@H](C(=O)N[C@@H](Cc1ccccc1)C(=O)N[C@@H](CCCCN)C(=O)N[C@@H](CCCCN)C(=O)N[C@H](C(=O)O)C(C)C)C(C)C)C(C)C)C(C)C)C(C)C` [FLGVVFKKASKVFPAVFKKV], for which the MIC is ≥ 114 µM in the assay with Bacillus cereus, > 114 µM in the assay on Staphylococcus aureus and 114 µM (≈ 256 µg/mL) with Escherichia coli.

`CC(C)[C@H](NC(=O)[C@H](Cc1ccccc1)NC(=O)[C@@H](NC(=O)[C@@H](NC(=O)[C@@H](NC(=O)[C@H](CCCCN)NC(=O)[C@H](C)NC(=O)[C@@H](N)[C@@H](C)O)C(C)C)C(C)C)C(C)C)C(=O)N[C@@H](CO)C(=O)N[C@@H](Cc1ccccc1)C(=O)N[C@@H](CO)C(=O)N[C@@H](Cc1ccc(O)cc1)C(=O)N[C@H](C(=O)N[C@H](C(=O)N1CCC[C@H]1C(=O)N[C@@H](CCCCN)C(=O)N[C@@H](CCCCN)C(=O)N[C@@H](CCCN=C(N)N)C(=O)N[C@@H](C)C(=O)N[C@@H](CS)C(=O)O)C(C)C)C(C)C` [TAKVVVFVSFSYVVPKKRAC]: the MIC in the assay on Bacillus cereus was ≥ 115 µM; in the assay with Escherichia coli it was > 115 µM.
